Test results from publication PMC4669708 (Cell Death & Disease, 2015).

Legend:
Assay in all cases: c-ponatinib pulldown LC-MS/MS
Type in all cases: binding
HSPA4 = HSPA4 (Homo sapiens, UniProt P34932)
How it was run: (§1)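 c-Ponatinib (25 nmol) immobilized on NHS-Sepharose was incubated with 10 mg whole cell lysate per replicate, in duplicate. Eluates were reduced, alkylated, trypsin-digested and analysed by gel-free 1D LC-MS/MS. Specificity was scored from Mascot, Phenyx and spectral counts, with competition by free compound.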

TPM4 = TPM4 (Homo sapiens, UniProt P67936)
Sequence of TPM4 (P67936 whole entry): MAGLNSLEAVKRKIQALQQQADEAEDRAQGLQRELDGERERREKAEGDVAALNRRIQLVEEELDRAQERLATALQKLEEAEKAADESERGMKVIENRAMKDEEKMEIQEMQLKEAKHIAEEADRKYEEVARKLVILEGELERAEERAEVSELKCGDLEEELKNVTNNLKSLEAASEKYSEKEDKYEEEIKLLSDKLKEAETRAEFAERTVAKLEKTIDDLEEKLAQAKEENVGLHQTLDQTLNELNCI
How it was run: as §1

MELK = MELK (Homo sapiens, UniProt Q14680)
How it was run: as §1

CDK5 = CDK5 (Homo sapiens, UniProt Q00535)
Sequence of CDK5 (Q00535 whole entry): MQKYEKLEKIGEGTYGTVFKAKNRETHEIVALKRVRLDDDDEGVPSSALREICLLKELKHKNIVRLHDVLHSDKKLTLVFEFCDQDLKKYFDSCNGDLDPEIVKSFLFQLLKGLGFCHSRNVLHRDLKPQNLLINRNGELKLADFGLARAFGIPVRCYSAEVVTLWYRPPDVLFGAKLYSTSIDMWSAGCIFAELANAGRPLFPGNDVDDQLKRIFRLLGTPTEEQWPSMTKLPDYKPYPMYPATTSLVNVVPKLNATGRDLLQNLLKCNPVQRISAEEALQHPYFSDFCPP
How it was run: as §1

MINK1 = MINK1 (Homo sapiens, UniProt Q8N4C8)
Sequence of MINK1 (Q8N4C8 whole entry): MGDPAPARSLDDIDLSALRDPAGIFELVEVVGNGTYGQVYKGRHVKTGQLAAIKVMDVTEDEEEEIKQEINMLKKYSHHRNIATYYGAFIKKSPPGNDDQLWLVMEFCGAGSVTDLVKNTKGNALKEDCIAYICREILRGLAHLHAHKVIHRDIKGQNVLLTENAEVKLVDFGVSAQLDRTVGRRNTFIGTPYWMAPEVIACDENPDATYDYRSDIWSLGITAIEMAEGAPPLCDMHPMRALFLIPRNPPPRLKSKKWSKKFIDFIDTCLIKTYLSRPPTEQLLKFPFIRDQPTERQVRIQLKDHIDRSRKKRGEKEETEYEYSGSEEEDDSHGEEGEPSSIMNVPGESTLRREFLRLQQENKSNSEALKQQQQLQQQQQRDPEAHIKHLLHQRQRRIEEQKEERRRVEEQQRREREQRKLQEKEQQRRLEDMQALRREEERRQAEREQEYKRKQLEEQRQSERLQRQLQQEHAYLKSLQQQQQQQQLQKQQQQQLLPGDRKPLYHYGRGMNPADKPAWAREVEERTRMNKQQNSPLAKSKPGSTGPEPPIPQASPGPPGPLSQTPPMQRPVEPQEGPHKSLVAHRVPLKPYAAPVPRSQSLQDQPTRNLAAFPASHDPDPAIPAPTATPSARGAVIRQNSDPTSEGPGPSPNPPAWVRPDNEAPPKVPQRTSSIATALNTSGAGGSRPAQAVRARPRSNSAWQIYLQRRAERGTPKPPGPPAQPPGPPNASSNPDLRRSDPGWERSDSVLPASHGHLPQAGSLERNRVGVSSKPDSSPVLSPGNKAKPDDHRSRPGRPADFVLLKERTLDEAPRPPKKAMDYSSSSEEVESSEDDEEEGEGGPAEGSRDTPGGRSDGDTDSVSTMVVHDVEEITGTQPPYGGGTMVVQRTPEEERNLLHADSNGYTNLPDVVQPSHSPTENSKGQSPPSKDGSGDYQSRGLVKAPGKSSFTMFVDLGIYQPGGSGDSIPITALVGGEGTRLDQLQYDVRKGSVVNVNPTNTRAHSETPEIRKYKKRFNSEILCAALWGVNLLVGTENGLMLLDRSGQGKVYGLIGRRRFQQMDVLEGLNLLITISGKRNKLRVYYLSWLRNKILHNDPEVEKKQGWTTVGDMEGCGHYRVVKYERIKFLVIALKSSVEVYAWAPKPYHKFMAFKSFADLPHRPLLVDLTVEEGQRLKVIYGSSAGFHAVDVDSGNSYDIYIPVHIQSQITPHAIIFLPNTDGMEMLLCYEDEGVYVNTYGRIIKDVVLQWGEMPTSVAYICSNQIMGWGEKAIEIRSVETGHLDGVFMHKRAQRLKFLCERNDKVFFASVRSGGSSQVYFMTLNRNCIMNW
How it was run: as §1

BLK = BLK (Homo sapiens, UniProt P51451)
Sequence of BLK (P51451 whole entry): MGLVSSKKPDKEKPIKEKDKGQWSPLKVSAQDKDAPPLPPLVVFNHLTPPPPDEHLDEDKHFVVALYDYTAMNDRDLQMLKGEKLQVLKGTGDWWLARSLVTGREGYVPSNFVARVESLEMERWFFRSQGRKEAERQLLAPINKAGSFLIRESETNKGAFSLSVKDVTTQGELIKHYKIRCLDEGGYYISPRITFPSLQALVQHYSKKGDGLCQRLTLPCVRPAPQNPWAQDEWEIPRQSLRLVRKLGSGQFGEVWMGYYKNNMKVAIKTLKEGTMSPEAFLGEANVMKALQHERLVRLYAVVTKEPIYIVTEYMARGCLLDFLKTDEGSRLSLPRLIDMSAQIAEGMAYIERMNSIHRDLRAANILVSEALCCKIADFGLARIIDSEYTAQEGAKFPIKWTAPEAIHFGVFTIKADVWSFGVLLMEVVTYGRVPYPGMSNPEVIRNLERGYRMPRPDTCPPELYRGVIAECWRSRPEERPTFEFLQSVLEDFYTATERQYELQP
How it was run: as §1

TNIK = TNIK (Homo sapiens, UniProt Q9UKE5)
Sequence of TNIK (Q9UKE5 whole entry): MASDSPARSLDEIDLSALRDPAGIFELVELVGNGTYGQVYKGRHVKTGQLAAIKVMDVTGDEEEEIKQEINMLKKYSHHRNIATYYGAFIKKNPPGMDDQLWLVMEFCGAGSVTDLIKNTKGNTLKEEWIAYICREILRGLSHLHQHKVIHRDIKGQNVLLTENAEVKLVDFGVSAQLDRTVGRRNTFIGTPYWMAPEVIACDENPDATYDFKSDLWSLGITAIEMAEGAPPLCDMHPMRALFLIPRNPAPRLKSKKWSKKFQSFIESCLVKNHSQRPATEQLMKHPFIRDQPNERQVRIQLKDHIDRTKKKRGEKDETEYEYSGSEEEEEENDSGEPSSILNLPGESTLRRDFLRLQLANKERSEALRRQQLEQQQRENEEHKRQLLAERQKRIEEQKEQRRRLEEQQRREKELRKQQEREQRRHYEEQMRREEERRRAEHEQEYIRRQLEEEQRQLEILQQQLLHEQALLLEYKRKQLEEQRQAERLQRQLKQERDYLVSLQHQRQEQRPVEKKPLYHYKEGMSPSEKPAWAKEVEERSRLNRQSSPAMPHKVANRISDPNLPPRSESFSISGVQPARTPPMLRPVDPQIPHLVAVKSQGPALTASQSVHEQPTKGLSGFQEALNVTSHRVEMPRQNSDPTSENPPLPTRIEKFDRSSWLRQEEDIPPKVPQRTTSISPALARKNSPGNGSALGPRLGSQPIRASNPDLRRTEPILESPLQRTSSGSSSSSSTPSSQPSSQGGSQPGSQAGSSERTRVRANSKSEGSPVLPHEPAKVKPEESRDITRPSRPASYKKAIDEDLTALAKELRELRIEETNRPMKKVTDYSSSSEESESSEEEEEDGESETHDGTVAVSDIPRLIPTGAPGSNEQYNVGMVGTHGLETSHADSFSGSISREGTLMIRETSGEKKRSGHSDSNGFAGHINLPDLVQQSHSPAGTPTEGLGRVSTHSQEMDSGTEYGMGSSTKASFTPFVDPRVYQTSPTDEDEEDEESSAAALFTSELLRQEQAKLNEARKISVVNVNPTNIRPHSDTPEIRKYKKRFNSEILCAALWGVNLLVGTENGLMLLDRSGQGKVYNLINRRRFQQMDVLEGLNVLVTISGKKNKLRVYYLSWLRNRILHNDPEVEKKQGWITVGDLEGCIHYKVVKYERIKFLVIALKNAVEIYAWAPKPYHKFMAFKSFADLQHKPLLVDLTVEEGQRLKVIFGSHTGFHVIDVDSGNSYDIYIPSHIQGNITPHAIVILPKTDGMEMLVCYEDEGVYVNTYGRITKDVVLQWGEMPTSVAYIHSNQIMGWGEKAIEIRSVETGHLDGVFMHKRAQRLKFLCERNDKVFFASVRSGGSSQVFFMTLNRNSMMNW
How it was run: as §1

PAG1 = molecular target: T1, PAG1 (Homo sapiens, UniProt Q9NWQ8)
T1 sequence (Q9NWQ8 1-432): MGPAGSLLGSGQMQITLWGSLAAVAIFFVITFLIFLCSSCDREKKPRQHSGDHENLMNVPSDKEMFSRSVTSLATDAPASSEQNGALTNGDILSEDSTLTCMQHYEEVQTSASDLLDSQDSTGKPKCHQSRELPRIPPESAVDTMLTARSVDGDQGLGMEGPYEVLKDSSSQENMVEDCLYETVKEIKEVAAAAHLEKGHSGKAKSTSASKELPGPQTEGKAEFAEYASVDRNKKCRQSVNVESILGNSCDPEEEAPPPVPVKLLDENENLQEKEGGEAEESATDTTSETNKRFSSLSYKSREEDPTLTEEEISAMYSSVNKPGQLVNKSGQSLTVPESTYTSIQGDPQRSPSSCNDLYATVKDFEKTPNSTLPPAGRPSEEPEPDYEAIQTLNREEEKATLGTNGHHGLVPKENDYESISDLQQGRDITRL
How it was run: as §1

Sequence of HSPA4 (P34932 whole entry): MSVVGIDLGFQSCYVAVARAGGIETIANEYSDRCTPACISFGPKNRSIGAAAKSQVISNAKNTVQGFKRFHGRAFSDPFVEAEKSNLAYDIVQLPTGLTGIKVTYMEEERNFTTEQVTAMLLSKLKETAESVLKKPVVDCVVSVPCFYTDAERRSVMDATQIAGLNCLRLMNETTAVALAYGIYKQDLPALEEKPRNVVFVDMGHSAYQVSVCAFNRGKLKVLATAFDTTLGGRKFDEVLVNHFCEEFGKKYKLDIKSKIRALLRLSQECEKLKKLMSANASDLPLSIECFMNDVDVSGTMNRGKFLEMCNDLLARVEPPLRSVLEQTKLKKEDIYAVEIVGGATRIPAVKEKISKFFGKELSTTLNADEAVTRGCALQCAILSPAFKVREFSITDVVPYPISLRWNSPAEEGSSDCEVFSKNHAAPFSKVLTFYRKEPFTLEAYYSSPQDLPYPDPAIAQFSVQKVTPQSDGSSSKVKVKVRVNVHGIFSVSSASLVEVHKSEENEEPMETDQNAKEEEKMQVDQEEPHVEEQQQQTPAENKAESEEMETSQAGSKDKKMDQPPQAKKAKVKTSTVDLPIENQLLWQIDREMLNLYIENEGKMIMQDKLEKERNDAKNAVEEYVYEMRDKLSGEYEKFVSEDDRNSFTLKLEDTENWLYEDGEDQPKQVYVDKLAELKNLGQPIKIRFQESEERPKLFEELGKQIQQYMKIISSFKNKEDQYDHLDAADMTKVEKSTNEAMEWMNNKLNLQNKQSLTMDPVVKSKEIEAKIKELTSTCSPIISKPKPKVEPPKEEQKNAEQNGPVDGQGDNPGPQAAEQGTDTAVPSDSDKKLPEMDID

Cc1ccc(C(=O)Nc2ccc(CN3CCN(CCCN)CC3)c(C(F)(F)F)c2)cc1C#Cc1cnc2cccnn12 [c-ponatinib]
Av. SC comp. (HSPA4; + free ponatinib): 1.75 | Total SC comp. (HSPA4; + free ponatinib): 7 | Av. SC (HSPA4; no competitor): 5.5 | Total SC (HSPA4; no competitor): 22 | Av. SC comp. (TPM4; + free ponatinib): 0.25 | Total SC comp. (TPM4; + free ponatinib): 1 | Av. SC (TPM4; no competitor): 3.5 | Total SC (TPM4; no competitor): 14 | Av. SC comp. (MELK; + free ponatinib): 1 | Total SC comp. (MELK; + free ponatinib): 4 | Av. SC (MELK; no competitor): 5 | Total SC (MELK; no competitor): 20 | Av. SC comp. (CDK5; + free ponatinib): 2.75 | Total SC comp. (CDK5; + free ponatinib): 11 | Av. SC (CDK5; no competitor): 7.25 | Total SC (CDK5; no competitor): 29 | Av. SC comp. (MINK1; + free ponatinib): 0 | Total SC comp. (MINK1; + free ponatinib): 0 | Av. SC (MINK1; no competitor): 4 | Total SC (MINK1; no competitor): 16 | Av. SC comp. (BLK; + free ponatinib): 0 | Total SC comp. (BLK; + free ponatinib): 0 | Av. SC (BLK; no competitor): 9.5 | Total SC (BLK; no competitor): 38 | Av. SC comp. (TNIK; + free ponatinib): 0 | Total SC comp. (TNIK; + free ponatinib): 0 | Av. SC (TNIK; no competitor): 26.75 | Total SC (TNIK; no competitor): 107 | Av. SC comp. (PAG1; + free ponatinib): 0 | Total SC comp. (PAG1; + free ponatinib): 0 | Av. SC (PAG1; no competitor): 2 | Total SC (PAG1; no competitor): 8
